Data on two compounds can be found in paper PMC5740388, “In Vitro Antibacterial Properties of Cefiderocol, a Novel Siderophore Cephalosporin, against Gram-Negative Bacteria” (Antimicrobial Agents and Chemotherapy, 2017).

pIC50: −log10 of the molar value. Read-outs that look alike come from different tables or passages of the source.

What all share (assay type): binding
Experiment [1] deals with T1, PBP4 of E. coli NIHJ JC-2 (Escherichia coli, UniProt P24228).
T1 construct: gene dacB
The experiment is described as follows: competition with […]benzylpenicillin for PBPs. As to conditions: read-out: % inhibition at 4 μg/ml.

Experiment [2] concerns the target T2, PBP3 of P. aeruginosa ATCC 27853 (Pseudomonas aeruginosa, UniProt G3XD46).
T2 construct: gene ftsI
The experiment is described as follows: competition with […]benzylpenicillin for PBPs. To be noted: covalent.

For experiment [3], the target named is T3, PBP1b of E. coli NIHJ JC-2 (Escherichia coli, UniProt P02919).
T3 construct: gene mrcB
Nature of the experiment: competition with […]benzylpenicillin for PBPs. As to conditions: covalent.

In experiment [4] the target is T4, PBP1b of P. aeruginosa ATCC 27853 (Pseudomonas aeruginosa, UniProt G3XD31).
T4 construct: gene mrcB
T4 sequence (G3XD31 1-774): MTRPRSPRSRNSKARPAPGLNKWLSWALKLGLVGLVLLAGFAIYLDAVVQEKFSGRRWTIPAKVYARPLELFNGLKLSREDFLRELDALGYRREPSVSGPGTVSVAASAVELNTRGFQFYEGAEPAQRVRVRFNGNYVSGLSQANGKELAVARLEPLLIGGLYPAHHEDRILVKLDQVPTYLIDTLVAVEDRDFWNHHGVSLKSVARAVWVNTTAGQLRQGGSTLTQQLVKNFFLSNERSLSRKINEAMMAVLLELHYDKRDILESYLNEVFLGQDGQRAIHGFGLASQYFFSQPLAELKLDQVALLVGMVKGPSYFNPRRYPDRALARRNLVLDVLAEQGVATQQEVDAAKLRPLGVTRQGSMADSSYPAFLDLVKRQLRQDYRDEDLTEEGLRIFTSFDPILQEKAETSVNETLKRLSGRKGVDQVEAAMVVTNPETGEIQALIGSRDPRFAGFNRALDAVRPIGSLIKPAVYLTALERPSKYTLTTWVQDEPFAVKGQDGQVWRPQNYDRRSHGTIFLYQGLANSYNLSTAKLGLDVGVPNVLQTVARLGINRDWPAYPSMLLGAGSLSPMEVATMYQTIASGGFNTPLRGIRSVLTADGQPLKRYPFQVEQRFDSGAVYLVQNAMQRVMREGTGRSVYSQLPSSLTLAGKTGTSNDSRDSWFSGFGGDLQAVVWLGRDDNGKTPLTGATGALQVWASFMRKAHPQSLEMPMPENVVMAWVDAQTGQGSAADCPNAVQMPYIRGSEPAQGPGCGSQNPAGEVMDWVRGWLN
Nature of the experiment: competition with […]benzylpenicillin for PBPs. To be noted: covalent; read-out: IC50 (μg/ml) / Ceftazidime.

The target in experiment [5] is T5, PBP2 of A. baumannii ATCC 17978 (Acinetobacter baumannii, UniProt D0C8Z9).
T5 construct: gene mrdA
T5 sequence (D0C8Z9 1-672): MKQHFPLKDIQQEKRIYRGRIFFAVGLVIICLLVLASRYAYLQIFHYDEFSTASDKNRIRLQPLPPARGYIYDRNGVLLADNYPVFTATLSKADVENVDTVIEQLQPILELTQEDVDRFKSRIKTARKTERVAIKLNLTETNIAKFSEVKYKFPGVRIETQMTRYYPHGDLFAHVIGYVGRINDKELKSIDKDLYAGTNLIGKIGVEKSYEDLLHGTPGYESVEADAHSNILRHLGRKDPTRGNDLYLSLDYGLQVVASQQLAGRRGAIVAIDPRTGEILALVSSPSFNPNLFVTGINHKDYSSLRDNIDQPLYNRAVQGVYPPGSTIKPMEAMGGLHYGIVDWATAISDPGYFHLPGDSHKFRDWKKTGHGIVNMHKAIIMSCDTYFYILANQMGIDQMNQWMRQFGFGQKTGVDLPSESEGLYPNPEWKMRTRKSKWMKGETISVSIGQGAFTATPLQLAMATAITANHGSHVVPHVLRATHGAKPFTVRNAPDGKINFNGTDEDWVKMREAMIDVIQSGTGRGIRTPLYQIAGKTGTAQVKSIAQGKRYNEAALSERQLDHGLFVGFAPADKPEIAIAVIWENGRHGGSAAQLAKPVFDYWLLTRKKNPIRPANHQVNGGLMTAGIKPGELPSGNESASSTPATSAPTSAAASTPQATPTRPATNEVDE
Nature of the experiment: competition with Bocillin FL for PBPs. To be noted: covalent. From the text:
competition with Bocillin FL for PBPs on PBP2 of A. baumannii ATCC 17978

Experiment [6] deals with T1, PBP4 of E. coli NIHJ JC-2. Nature of the experiment: competition with […]benzylpenicillin for PBPs. As to conditions: covalent; read-out: IC50 (μg/ml) / E. coli NIHJ JC-2 / Ceftazidime.

For the compound `CC(C)(O/N=C(\C(=O)N[C@@H]1C(=O)N2C(C(=O)[O-])=C(C[N+]3(CCNC(=O)c4ccc(O)c(O)c4Cl)CCCC3)CS[C@H]12)c1csc(N)n1)C(=O)O` [cefiderocol], the inhibition at 4 µg/mL in experiment [1] stood at 63%. The IC50 is 0.0798 µM in experiment [2] (read-out: IC50 (μg/ml) / / Cefiderocol (converted)), 4.48 µM in experiment [3] (read-out: IC50 (μg/ml) / E. coli NIHJ JC-2 / Cefiderocol (converted)) and 3.07 µM in experiment [5] (read-out: IC50 (μg/ml) / A. baumannii ATCC 17978 ^a / Cefiderocol (converted)). In addition, the pIC50 in experiment [4] is less than 5.27.
With `CC(C)(O/N=C(\C(=O)N[C@@H]1C(=O)N2C(C(=O)[O-])=C(C[n+]3ccccc3)CS[C@H]12)c1csc(N)n1)C(=O)O` [ceftazidime], the IC50 in experiment [2] (read-out: IC50 (μg/ml) / P. aeruginosa ATCC 27853 / Ceftazidime (converted)) was 0.165 µM. Besides, the pIC50 in experiment [6] is less than 5.74; in experiment [3] (read-out: IC50 (μg/ml) / E. coli NIHJ JC-2 / Ceftazidime) it was less than 5.14; in experiment [4], less than 5.14; in experiment [5] (read-out: IC50 (μg/ml) / A. baumannii ATCC 17978 ^a / Ceftazidime) it was less than 3.93.
